Measured values published in a melting point compilation (Tetko et al.; mined from patent text by program, amines drawn as free bases though some values may be those of a salt).

| melting point | SMILES |
| --- | --- |
| 81 to 91 °C | CC(=O)OC(C(Oc1ccc(Cl)cc1)n1ccnc1)C(C)(C)C (centres undefined) |
| 112 °C | O=C(Oc1ccc2c(c1)CCCC2)Oc1ccc2c(c1)CCCC2 |
| 120 °C | C[Si](C)(C)CNc1ccc([N+](=O)[O-])cc1 |
| 141 to 145 °C | N=C(N)Nc1nc(CSCCNc2ncccc2C(=O)O)cs1 |
| 150 to 151 °C | Cc1c(-c2ccccn2)c(N2CC[C@H](N(C)C)C2)c2oc(C3CC3)nc2c1C#N |
| 185 to 186 °C | ON=C(Cn1ccnc1)c1ccc(Cl)cc1 |
| 134 °C | CCCOC(=O)OC1CSC(Oc2ccc3c(C)cc(=O)oc3c2)C(OC(=O)OCCC)C1OC(=O)OCCC (centres undefined) |
| 185 to 186 °C | COc1cc(OC)c(-c2cccs2)cc1C=CC(=O)c1ccc(S(=O)(=O)Nc2nnn[nH]2)cc1 |
| 132 to 134 °C | Cc1ccccc1CC(=O)c1c(O)c2cccnc2n(-c2cccc(OC(F)(F)F)c2)c1=O |
| 184 to 186 °C | CCOC(=O)c1cn(C2CC2)c2nc(N3CCN(C(=O)OCC)CC3)c(F)cc2c1=O |
| 70 to 73 °C | COC(=O)C(=C(C)NCC(O)CO)c1nc(NC(C)=O)c([N+](=O)[O-])nc1Cl (centres undefined) |
| 88 to 91 °C | CC(C)(C)OC(=O)N=C(NC(=O)OC(C)(C)C)N1CCCC1 |
| 222 to 223 °C | COc1cc(C=C2CCc3c2nc2ccc(Cl)cn2c3=O)cc(OC)c1OC |
| 158 to 159 °C | C(=Cc1ccc(OCCCCc2nnn[nH]2)cc1)c1ccncc1 |
| 162 °C | CN(Cc1ccccc1)C(=O)CCC(=O)c1ccc(Cl)c(S(N)(=O)=O)c1 |
| 213 to 215 °C | CC1(C)C=C(c2cc(C#N)ccc2O)c2cc(C#N)ccc2O1 |
| 221 °C | CCOC(=O)COc1ccc(Cn2c(-c3ccc(C(F)(F)F)cc3)c(C)c3cc(OCc4ccccc4)ccc32)cc1 |
| 121 to 123 °C | O=C(NCc1ccccc1)c1ccnc(N2CCN(CC3CC3)C2=O)c1 |
| 197 to 199 °C | CC(C)(Oc1c(Br)cc(-c2c3ccccc3c(Br)c3sc4ccccc4c23)cc1Br)C(=O)O |
| 90 to 94 °C | COc1cc(C(=O)N2CCC(CCN3CCC(=C(c4ccccc4)c4ccccc4)CC3)(c3ccc(Cl)c(Cl)c3)C2)cc(OC)c1OC (centres undefined) |
| 160 to 161 °C | CC(C)n1nc(-c2cnc(N)nc2-c2ccccc2C(F)(F)F)ccc1=O |
| 272 to 275 °C | Cn1ncc(C(=O)c2ccc(S(C)(=O)=O)cc2Cl)c1O |
| 70 to 73 °C | O=C(O)C[C@]1(O)C[C@H](CCCCCCc2ccc(C(F)(F)F)cc2C(F)(F)F)OC1=O (relative stereo) |
| 245 to 247 °C | Cn1nc(N2c3ccccc3C[C@H]2C(=O)O)ccc1=O |

| melting point | SMILES |
| --- | --- |
| 99 to 101 °C | O=C(O)C1CSC(c2cc([N+](=O)[O-])ccc2OCCO[N+](=O)[O-])N1 (centres undefined) |
| 125 °C | O=C1Nc2ccc(I)cc2C1=NNC(=O)C1CCN(Cc2cccnc2)CC1 |
| 126 to 127 °C | COc1ccc2cc(C(C)=CC(C)=O)cc(F)c2c1 |
| 240 to 242 °C | CCCNC(=O)C=Cc1ccc2ccn(Cc3ccc(C(=O)NS(=O)(=O)c4ccccc4C)cc3OC)c2c1 |
| 106 to 107 °C | CCCCCc1c(C(C)C)nc(C(C)C)c(CO)c1-c1ccc(F)c(F)c1 |
| 151 to 155 °C | CCOC(=O)c1c(SC)nc(-c2ccc(SC)cc2)n(-c2ccc(F)cc2)c1=O |
| 218 to 219 °C | CC(C)(C)c1ccc(C[C@H]2NC(=O)O[C@H]2c2ccc(F)cc2)cc1 (racemic) |
| 169 °C | CCC(=NNC(=O)c1ccccc1)c1cccnc1 |
| 131 to 132 °C | OC(CNc1c(Br)cnc2ccccc12)c1ccccc1 (centres undefined) |
| 242 to 244 °C | N#Cc1cc(N)ccc1NC(=O)c1ccc(N)cc1 |
| 79 to 80 °C | c1ccc2c(c1)CCc1ccccc1C21CO1 |
| 157 to 160 °C | COC(=O)NNc1cc(C)c(Cl)c2c1OC(C)C2 (centres undefined) |
| 92 to 94 °C | COc1ccc(C2=NOC(CN=C=S)C2)cc1 (centres undefined) |
| 250 to 252 °C | O=C(NC1CCCCC1)c1ccc(-c2cnc(-c3ccc(NC(=O)c4ccccn4)cc3)[nH]2)cc1 |
| 163 °C | O=Cc1cc(Cl)cc(C=O)n1 |
| 161 to 162 °C | CCCCOC(=O)COc1ccc(C(=O)Nc2ccc(C)cc2Sc2ccccc2-c2nnn[nH]2)cc1 |
| 153 to 155 °C | COc1cc2c(cc1N1CCNCC1)N(C(=O)c1ccc(-c3ccc(-c4noc(C)n4)cc3C)cc1)CC2 |
| 143 to 145 °C | O=C(NCCCCNS(=O)(=O)c1ccc(Oc2ccccc2)cc1)P(=O)(O)O |
| 190 to 193 °C | Nc1ccc(-c2ccc3nnn(Cc4ccc5ncccc5c4)c3n2)cc1 |
| 108 to 109 °C | CC(C)C(=O)c1c(C2CC2)nn2ccccc12 |
| 86 to 87 °C | CNC(=S)N(C)Cc1cccnc1 |
| 221 to 223 °C | COc1cc([C@@H]2c3cc4c(cc3C(=O)C[C@H]2C(=O)O)OCO4)cc(OC)c1OC (relative stereo) |
| 133 to 134 °C | CCOC(=O)C(=O)NNC(=O)c1cc2cccc(N(C)S(=O)(=O)c3cccs3)c2[nH]1 |
| 207 to 209 °C | O=S1(=O)NCN(C2CCCCC2)c2cc(Cl)c(Cl)cc21 |

| melting point | SMILES |
| --- | --- |
| 91 to 92 °C | C[C@@H](NCC1COc2ccccc2N1)c1ccccc1 (some centres undefined) |
| 219 to 221 °C | Cc1ccc2c(c1)N(CC(=O)c1ccccc1C)C(=O)C(NC(=O)Nc1cccc(C(=O)O)c1)CN2C(=O)c1ccco1 (centres undefined) |
| 174 to 176 °C | CCC(=O)c1ccc2c(c1)OCC(=O)N2 |
| 175 to 177 °C | CC(C)n1nnc(NC(=O)C(c2ccccc2)c2ccccc2)n1 |
| 90 to 93 °C | COc1ccc(N2C(=O)C(=C3CCCN3C)c3ccccc32)cc1 |
| > 280 °C | CS(=O)(=O)c1ccc(-n2nc(C(=O)O)cc2-c2ccc(-c3ccco3)cc2)cc1 |
| 152 °C | O=Cc1ccc(C(=O)Nc2ccc(OCC(F)(F)C(F)F)cc2)cc1 |
| 95 to 97 °C | O=C(O)CC(CCCCNS(=O)(=O)c1ccc(Cl)cc1)CCCc1cccnc1 (centres undefined) |
| 103 to 106 °C | C=C(Cl)CSC1=C(O)CC(C)(C)CC1=O |
| 168 to 174 °C | CCCc1nc2c(N)nc3cc(Oc4cccc(NCC)c4)ccc3c2n1CC(C)C |
| 220 to 222 °C | C=C(C)C(=O)Nc1ccc(C(=O)O)c(O)c1 |
| 104 to 107 °C | NNc1ncccc1-c1cccnc1 |
| 156 to 158 °C | O=c1[nH]c2ccc(Cl)cc2n1CCN1CCCCC1 |
| 112 to 115 °C | NS(=O)(=O)c1ccc(S(=O)(=O)CCCc2ccc(O)cc2)s1 |
| 145 to 150 °C | CCOCCn1c(N2CCCN(CCC3(c4ccccc4)CCN(C(=O)c4cc(NC(C)=O)ccc4OC)C3)CC2)nc2ccccc21 (centres undefined) |
| 117 to 120 °C | CCN1C(=O)C(C(=O)Nc2cccc(C(=O)Nc3ccc(Br)cc3)c2)c2cc(C(C)=O)ccc21 (centres undefined) |
| 166 to 168 °C | Fc1ccc(NCc2ccc(NCc3ccccc3)nc2)nc1 |
| 202 to 210 °C | CCS(=O)(=O)NCc1ccc2[nH]cc(CCCN3CCN(c4ncncc4OC)C(C)C3)c2c1 (centres undefined) |
| 186 to 187 °C | CS(=O)(=O)NCCCn1cnc(-c2ccc(F)cc2)c1-c1ccncc1 |
| 252 °C | COc1ccc(C(=O)Nc2ccccc2)c2c1oc1ccc(NC(C)=O)cc12 |
| 150 to 151 °C | CCS(=O)(=O)CCNC(=O)C1=C(C(=O)Nc2ccc(Cl)cc2F)CCCC1 |
| 199 to 200 °C | COC(=O)[C@H](Cc1cncn1C)NC(=O)C(Cc1cccc2ccccc12)Cc1cccc2ccccc12 |
| 97 to 99 °C | C#CCN1CCC(OC)(c2cc(F)cc(Sc3ccc(C(C)=NO)cc3)c2)C1 (centres undefined) |
| 176 to 177 °C | CCCCc1nc(SC)c(C(C)=O)n1Cc1ccc(-c2ccccc2S(=O)(=O)NC(=O)NCCC)cc1 |

| melting point | SMILES |
| --- | --- |
| 166 to 168 °C | O=C1c2ccccc2CN1CCN1CCC(c2noc3cc(F)ccc23)CC1 |
| 80 to 82 °C | Nc1ccc(SCC2CCCCC2)cc1[N+](=O)[O-] |
| 63 to 64 °C | Cc1cc(C#N)cc(C)c1OCCCCCc1cc(CO)no1 |
| 140 to 143 °C | C[Si]1(CC(CN)CC(=O)O)CCCCC1 (centres undefined) |
| 69 °C | C1CNCCN2CCOCCOCCN(CCN1)CCOCCOCC2 |
| 50 °C | c1ccc(OCCSCc2nnc(-c3ccc(OCCCN4CCCCCC4)cc3)o2)cc1 |
| 184 °C | CC(C)(C)C1NC(C(=O)O)CS1 (mixture of isomers) |
| 153 to 154 °C | CCOC(=O)c1c(CN2CCOCC2)nc2cc(OC)c(OC)cc2c1-c1ccccc1OC |
| 70 °C | CCOc1ccc(C=O)c(F)c1F |
| 55 °C | NCCOC(=C1C2CC3CC(C2)CC1C3)c1cccc(O)c1 |
| 56 to 57 °C | Cc1cccc(CSCCNC(=O)c2c(Cl)cccc2Cl)c1 |
| 198 to 204 °C | Cc1cccc(NC(=O)c2cccc(C(F)(F)F)c2)c1C(=O)O |
| 125 to 127 °C | Cc1sc(N)c(C(=O)c2ccc(Cl)s2)c1C |
| 182 to 184 °C | CNc1cccc(C2C(C(=O)OC)=C(C)NC(C)=C2C(=O)OC)c1 |
| 158 °C | COc1ccc(C(=O)NC[C@@H](C(=O)NO)N2CCN(S(C)(=O)=O)CC2)cc1 |
| 137 to 139 °C | CCOC(=O)C1(c2ccccc2)CCC=CC1Cl (centres undefined) |
| 118 to 122 °C | Cc1c(Br)sc2ccc(Br)cc12 |
| 93 to 96 °C | O=C(c1ccco1)c1cc([N+](=O)[O-])ccc1Cl |
| 103 to 104 °C | CCOC(=O)c1c(C(C)C)c(S(=O)(=O)c2ccc(OC)cc2)n2ccccc12 |
| 108 to 112 °C | COc1ccc(OCc2cn(C34CC5CC(CC(C5)C3)C4)nn2)cc1OC |
| 159 to 161 °C | Cc1ccc2[nH]c(SCC(F)(F)F)nc2c1 |
| 132 to 133 °C | COc1ccc(-c2cc(=O)n(Cc3ccc(F)cc3)nc2-c2ccc(OC)cc2)cc1 |
| 194 to 195 °C | Cc1c(Cc2cccnc2)sc2ccc(C(N)=O)cc12 |

| SMILES | melting point |
| --- | --- |
| Clc1ccc2c(c1)C(c1ccccc1)=NCc1nnc(CNC3CC3)n1-2 | 164 to 169 °C |
| O=C(OC1CNC(=N[N+](=O)[O-])NC1)C1(C2CCCCC2)CCCCC1 (centres undefined) | 196 to 197 °C |
| CN(C(=O)On1nc(Br)c(Br)c1Br)c1ccccc1 | 115 to 119 °C |
| O=P1(Oc2ccccc2)CCCC(CI)O1 (centres undefined) | 128 °C |
